According to patent publication US20070105837A1, “Novel derivatives of 4a,5,9,10,11,12-hexahydrobenzofuro[3a,3,2][2]-benzazepine, method for the production thereof and use thereof in the production of medicaments” (priority 2003, published 2007):
pIC50: −log10 of the molar value. Structures can show the parent of a compound that is named as a salt. Where two headings read alike, the source gives them in different places.

Assays:
acetylcholinesterase = acetylcholinesterase (Homo sapiens, UniProt P22303); test: biochemical
butyrylcholinesterase = butyrylcholinesterase (Homo sapiens, UniProt P06276); test: biochemical
[1] = read-out: Acetylcholinesterase IC-50
[2] = read-out: Butyrylcholinesterase IC-50

Chain of acetylcholinesterase (P22303 32-614, species assumed): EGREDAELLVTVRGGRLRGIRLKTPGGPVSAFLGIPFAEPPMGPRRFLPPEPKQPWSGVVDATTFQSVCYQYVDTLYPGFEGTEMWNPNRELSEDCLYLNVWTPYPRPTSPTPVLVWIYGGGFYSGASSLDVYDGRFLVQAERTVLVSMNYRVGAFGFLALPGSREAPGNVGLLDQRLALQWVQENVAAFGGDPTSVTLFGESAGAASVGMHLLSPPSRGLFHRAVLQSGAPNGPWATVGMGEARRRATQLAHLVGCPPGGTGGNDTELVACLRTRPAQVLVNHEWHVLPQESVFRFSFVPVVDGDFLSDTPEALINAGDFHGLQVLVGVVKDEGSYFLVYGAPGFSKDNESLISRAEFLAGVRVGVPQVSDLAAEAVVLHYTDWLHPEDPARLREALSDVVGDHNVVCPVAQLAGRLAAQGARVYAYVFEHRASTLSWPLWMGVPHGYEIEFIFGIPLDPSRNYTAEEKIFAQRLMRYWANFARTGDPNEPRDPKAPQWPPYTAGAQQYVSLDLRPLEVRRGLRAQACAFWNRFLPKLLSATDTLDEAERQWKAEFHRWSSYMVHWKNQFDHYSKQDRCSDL
Chain of butyrylcholinesterase (P06276 29-602): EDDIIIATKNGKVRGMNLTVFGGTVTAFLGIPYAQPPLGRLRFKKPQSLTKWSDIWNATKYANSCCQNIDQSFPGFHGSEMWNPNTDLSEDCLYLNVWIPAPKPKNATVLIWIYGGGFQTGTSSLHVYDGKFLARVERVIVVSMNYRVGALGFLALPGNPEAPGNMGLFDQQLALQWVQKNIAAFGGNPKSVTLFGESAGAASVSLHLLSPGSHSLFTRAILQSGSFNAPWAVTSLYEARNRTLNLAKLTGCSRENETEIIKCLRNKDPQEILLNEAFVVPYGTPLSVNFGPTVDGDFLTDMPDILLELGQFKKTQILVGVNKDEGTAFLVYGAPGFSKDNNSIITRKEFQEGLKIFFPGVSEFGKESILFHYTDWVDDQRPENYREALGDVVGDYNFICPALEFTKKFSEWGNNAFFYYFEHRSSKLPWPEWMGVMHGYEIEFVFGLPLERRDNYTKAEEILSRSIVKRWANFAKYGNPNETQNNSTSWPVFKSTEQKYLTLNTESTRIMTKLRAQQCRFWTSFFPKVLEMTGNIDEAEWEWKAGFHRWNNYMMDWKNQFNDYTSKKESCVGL

Compound: COc1cc(Br)c2c3c1OC1C[C@H](O)C=C[C@]31CCN(CCN1CCOCC1)C2 (single isomer, unassigned) [Example 58]
- pIC50 (acetylcholinesterase; [1]): < 4.00
- pIC50 (butyrylcholinesterase; [2]): 4.28

Compound: COc1ccc2c3c1O[C@H]1C[C@@H](O)C=C[C@@]31CCN(C(N)=S)C2 (stereo in doubt) [Example 30, (4aS,6R,8aS)-6-hydroxy-3-methoxy-5,6,9,10-tetrahydro-4aH-[1]benzofuro[3a,3,2-ef][2]benzazepine-11(12H)-carbothioamide]
- pIC50 (acetylcholinesterase; [1]): < 4.00
- pIC50 (butyrylcholinesterase; [2]): < 4.00

Compound: COc1cc(Br)c2c3c1O[C@H]1C[C@H](O)C=C[C@@]31CCNC2 [Example 1, (4aS,6S,8S)-1-bromo-4a,5,9,10,11,12-hexahydro-3-methoxy-6H-[1]benzofuro[3a,3,2-ef][2]benzazepin-6-ol.]
- pIC50 (acetylcholinesterase): < 4.00
- pIC50 (butyrylcholinesterase): < 4.00

Compound: COc1cc(Br)c2c3c1O[C@@H]1C[C@@H](O)C=C[C@]31CCNC2 [Example 3, (4aR,6R,8R)-1-bromo-4a,5,9,10,11,12-hexahydro-3-methoxy-6H-[1]benzofuro[3a,3,2-ef][2]benzazepin-6-ol.]
- pIC50 (acetylcholinesterase): < 4.00
- pIC50 (butyrylcholinesterase): < 4.00

Compound: CNC(=S)N1CC[C@]23C=C[C@H](O)C[C@H]2Oc2c(OC)cc(Br)c(c23)C1 [Example 4, (4aR,6R,8aR)-1-brorno-4a,5,9,10-tetrahydro-6-hydroxy-3-methoxy-6H-[1]benzofuro-[3a,3,2-ef][2]benzazepine-11(12H)-thiocarbonic acid methylamide]
- pIC50 (acetylcholinesterase; [1]): < 4.00
- pIC50 (butyrylcholinesterase; [2]): < 4.00

Compound: COc1cc(Br)c2c3c1O[C@@H]1C[C@H](O)C=C[C@]31CCN(Cc1ccccc1)C2 [Example 6, (4aR,6S,8aR)-11-benzyl-1-bromo-4a,5,9,10,11,12-hexahydro-3-methoxy-6H-[1]benzofuro[3a,3,2-ef][2]benzazepin-6-ol]
- pIC50 (acetylcholinesterase; [1]): < 4.00
- pIC50 (butyrylcholinesterase; [2]): 4.72

Compound: COc1cc(Br)c2c3c1O[C@@H]1C[C@H](O)C=C[C@]31CCN(CCCN1CCN(C)CC1)C2 [Example 8, (4aR,6R,8aR)-11-(3-(4-methylpiperazine)-1-yl-propyl)-3-methoxy-5,6,9,10,11,12-hexahydro-4aH-[1]benzofuro[3a,3,2-ef][2]benzazepin-6-oI, Trihydrochloride]
- pIC50 (acetylcholinesterase; [1]): < 4.00

Compound: COC(=O)CCC(=O)N1CC[C@]23C=C[C@@H](O)C[C@H]2Oc2c(OC)cc(Br)c(c23)C1 [Example 9, Methyl-4-((4aR,6S,8aR)-1-bromo-4a,5,9,10,11,12-hexahydro-6-hydroxy-3-methoxy-6H-benzofuro[3a,3,2-ef][2]benzazepine-11-yl)gamma-oxobutyrate]
- pIC50 (acetylcholinesterase; [1]): < 4.00
- pIC50 (butyrylcholinesterase; [2]): < 4.00

Compound: COc1cc(Br)c2c3c1O[C@@H]1C[C@H](O)C=C[C@]31CCN(CCCN)C2 [Example 10, (4aR,6S,8aR)-11-(4-aminopropyl)-3-methoxy-5,6,9,10,11,12-hexahydro-4aH-[1]benzofuro[3a,3,2-et][2]benzazepin-6-ol, methane sulfonate]
- pIC50 (acetylcholinesterase; [1]): < 4.00
- pIC50 (butyrylcholinesterase; [2]): < 4.00

Compound: CNC(=S)N1CC[C@]23C=C[C@@H](O)C[C@H]2Oc2c(OC)cc(Br)c(c23)C1 [Example 11, (4aR,6S,8aR)-1-bromo-4a,5,9,10-tetrahydro-6-hydroxy-3-methoxy-6H-[1]benzofuro-[3a,3,2-et][2]benzazepine-11(12H)-thiocarbonic acid methylamide]
- pIC50 (acetylcholinesterase; [1]): < 4.00
- pIC50 (butyrylcholinesterase; [2]): < 4.00

Compound: COc1ccc2c3c1O[C@H]1C[C@H](O)C=C[C@@]31CCN(C(=O)NC(C)C)C2 [Example 14]
- pIC50 (acetylcholinesterase; [1]): < 4.00
- pIC50 (butyrylcholinesterase; [2]): < 4.00

Compound: COc1ccc2c3c1O[C@H]1C[C@H](O)C=C[C@@]31CCN(c1ncccn1)C2 [Example 16, (4aS,6S,8aS)-4a,5,9,10,11,12-hexahydro-3-methoxy-11-(2-pyrimidinyl)-6H-[1]benzofuro[3a,3,2-ef][2]benzazepin-6-ol]
- pIC50 (acetylcholinesterase; [1]): < 4.00
- pIC50 (butyrylcholinesterase; [2]): < 4.00

Compound: C#CCN1CC[C@@]23C=C[C@@H](O)C[C@@H]2Oc2c(OC)ccc(c23)C1 [Example 18, (4aS,6S,8aS)-4a,5,9,10,11,12-hexahydro-3-methoxy-11-propargyl-6H-[1]benzofuro[3a,3,2-ef][2]benzazepin-6-ol]
- pIC50 (acetylcholinesterase; [1]): < 4.00
- pIC50 (butyrylcholinesterase; [2]): < 4.00

Compound: C=CCNC(=S)N1CC[C@@]23C=C[C@@H](O)C[C@@H]2Oc2c(OC)ccc(c23)C1 [Example 20, (4aS,6S,8aS)-6-hydroxy-3-methoxy-4a,5,9,10-tetrahydro-6H-[1]benzofuro[3a,3,2-ef][2]benzazepine-11(12H)-thiocarbonic acid allylamide]
- pIC50 (acetylcholinesterase; [1]): < 4.00
- pIC50 (butyrylcholinesterase; [2]): < 4.00

Compound: COc1ccc2c3c1O[C@H]1C[C@H](O)C=C[C@@]31CCN(C(N)=O)C2 [Example 21, (4aS,6S,8aS)-4a,5,9,10-tetrahydro-6-hydroxy-3-methoxy-6H-[1]benzofuro[3a,3,2-ef][2]benzazepine-11(12H)-carboxamide]
- pIC50 (acetylcholinesterase; [1]): < 4.00
- pIC50 (butyrylcholinesterase; [2]): < 4.00

Compound: COc1ccc2c3c1O[C@@H]1C[C@@H](O)C=C[C@]31CCN(C(N)=O)C2 [Example 25, (4aR,6R,8aR)-4a,5,9,10-tetrahydro-6-hydroxy-3-methoxy-6H-[1]benzofuro[3a,3,2-ef][2]benzazepine-11(12H)-carboxamide]
- pIC50 (acetylcholinesterase; [1]): < 4.00
- pIC50 (butyrylcholinesterase; [2]): < 4.00

Compound: CCN1CC[C@]23C=C[C@H](O)C[C@H]2Oc2c(OC)ccc(c23)C1 [Example 26, (4aR,6R,8aR)-4a,5,9,10,11,12-hexahydro-3-methoxy-11-ethyl-6H-[1]benzofuro[3a,3,2,ef][2]benzazepin-6-ol]
- pIC50 (acetylcholinesterase): < 4.00
- pIC50 (butyrylcholinesterase): < 4.00

Compound: COc1ccc2c3c1O[C@@H]1C[C@@H](O)C=C[C@]31CCN(/C(=N/C#N)SC)C2 [Example 27, Methyl (4aR,6R,8aR)-N11-cyano-6-hydroxy-3-methoxy-4a,5,9,10-tetrahydro-6H-[1]benzofuro [3a,3,2-ef][2]benzazepine-11(12H)-carboximidothioate]
- pIC50 (acetylcholinesterase; [1]): < 4.00
- pIC50 (butyrylcholinesterase; [2]): < 4.00

Compound: COc1ccc2c3c1O[C@@H]1C[C@@H](N)C=C[C@]31CCN(C)C2 [Example 28, (4aR,6R,8aR)-4a,5,9,10,11,12-hexahydro-3-methoxy-11-methyl-6H-benzofuro[3a,3,2-ef][2]benzazepin-6-amine, dihydrochloride]
- pIC50 (acetylcholinesterase; [1]): < 4.00
- pIC50 (butyrylcholinesterase; [2]): < 4.00

Compound: COc1ccc2c3c1O[C@@H]1C[C@H](O)C=C[C@]31CCN(CCCO)C2 [Example 29, (4aR,6S,8aR)-11-(3-hydroxypropyl)-3-methoxy-5,6,9,10,11,12-hexahydro-4aH-[1]benzofuro[3a,3,2-ef][2]benzazepin-6-ol]
- pIC50 (acetylcholinesterase; [1]): < 4.00
- pIC50 (butyrylcholinesterase; [2]): < 4.00

Compound: COc1ccc2c3c1O[C@H]1C[C@@H](O)C=C[C@@]31CCN(CC(N)=O)C2 [Example 34, 2-((4aS,6R,8aS)-6-hydroxy-3-methoxy-5,6,9,10-tetrahydro-4aH-[1]benzofuro[3a,3,2-ef][2]benzazepine-11(12H)-yl)acetamide]
- pIC50 (acetylcholinesterase; [1]): < 4.00
- pIC50 (butyrylcholinesterase; [2]): 4.11

Compound: COc1ccc2c3c1O[C@H]1C[C@@H](O)C=C[C@@]31CCN(c1ncccn1)C2 [Example 37, (4aS,6R,8aS)-3-methoxy-11-(2-pyrimidinyl)-5,6,9,10,11,12-hexahydro-4aH-[1]benzofuro [3a,3,2-ef][2]benzazepin-6-ol]
- pIC50 (acetylcholinesterase; [1]): < 4.00
- pIC50 (butyrylcholinesterase; [2]): < 4.00

Compound: COc1ccc2c3c1O[C@H]1C[C@@H](O)C=C[C@@]31CCN(C(=O)CCC(=O)O)C2 [Example 39, ((4aS,6R,8aS)-4a,5,9,10,11,12-hexahydro-6-hydroxy-3-methoxy-6H-benzofuro[3a,3,2-ef][2]benzazepine-11--yl)gamma-oxobutyric acid]
- pIC50 (acetylcholinesterase; [1]): < 4.00
- pIC50 (butyrylcholinesterase; [2]): < 4.00

Compound: COc1ccc2c3c1O[C@H]1C[C@@H](O)C=C[C@@]31CCN(c1nc(Cl)nc(Cl)n1)C2 [Example 42, (4aS,6R,8aS)-11-(4,6-dichloro-1,3,5,-triazin-2-yl)-3-methoxy-5,6,9,10,11,12-hexahydro-4aH-[1]benzofuro[3a,3,2-ef][2]benzazepin-6-ol]
- pIC50 (acetylcholinesterase; [1]): < 4.00
- pIC50 (butyrylcholinesterase; [2]): < 4.00

Compound: COc1ccc2c3c1O[C@H]1C[C@@H](O)C=C[C@@]31CCN(CCCCN1CCCCC1)C2 [Example 50]
- pIC50 (acetylcholinesterase): 7.44
- pIC50 (butyrylcholinesterase): 6.21

Compound: COc1ccc2c3c1O[C@H]1C[C@@H](O)C=C[C@@]31CCN(C(=O)CCl)C2 [Example 54, 1-[(4aS,6R,8aS)-6-hydroxy-3-methoxy-5,6,9,10-tetrahydro-4aH-[1]benzofuro[3a,3,2-ef][2]benzazepine-11(12H)-yl]-2-chloroethan-1-one]
- pIC50 (butyrylcholinesterase; [2]): < 4.00

Compound: COc1ccc2c3c1O[C@@H]1C[C@H](O)C=C[C@]31CC[N+](C)=C2 [Example 55, (4aR,6S,8aR)-6-hydroxy-3-methoxy-11-methyl-4a,5,9,10-tetrnhydro-6H-benzofuro[3a,3,2-eq][2]benzazepinium bromide]
- pIC50 (butyrylcholinesterase): < 4.00

Compound: COc1ccc2c3c1O[C@@H]1C[C@@H](O)C=C[C@]31CC[N+](C)=C2 [Example 56, (4aR,6R,8aR)-6-hydroxy-3-methoxy-11-methyl-4a,5,9,10-tetrahydro-6H-benzofuro[3a,3,2-ef][2]benzazepineium bromide]
- pIC50 (butyrylcholinesterase): < 4.00

Compound: COc1cc(Br)c2c3c1O[C@H]1C[C@@H](O)C=C[C@@]31CCN(CCN1CCOCC1)C2 [Example 57, (4aS,6R,8aS)-1-bromo-4a,5,9,10,11,12-hexahydro-11-(2-(mopholin-4-yl)-ethyl)-3-methoxy-6H-[1]benzafuro[3a,3,2-ef][2]benzazepin-6-ol]
- pIC50 (acetylcholinesterase): < 4.00
- pIC50 (butyrylcholinesterase): 5.57

Compound: COc1ccc2c3c1O[C@@H]1C=C(c4ccccc4)C=C[C@@]31CCN(C)C2 [Example 59, (4aS,8aS)-D5,6-4a,5,9,10,11,12-hexahydro-11-methyl-3-methoxy-6-phenyl-6H-[1]benzofuro[3a,3,2-ef][2]benzazepine]
- pIC50 (acetylcholinesterase; [1]): 4.28
- pIC50 (butyrylcholinesterase; [2]): 4.60

Compound: (4aS,6S,8aS)-1-bromo-6-hydroxy-3-methoxy-4a,5, 9,10-tetrahydro-6N-[1]benzofuro[3a,3,2-et][2]benzazepine-11(12H)-thiocarbonic acid allylamide [Example 2]
- pIC50 (butyrylcholinesterase; concentration at which 50% inhibition occurs, read-out: Butyrylcholinesterase IC-50): < 4.00
